ChEMBL document CHEMBL5608197, “Optimization of pyrazolopyridine 4-carboxamides with potent antimalarial activity for which resistance is associated with the P. falciparum transporter ABCI3” (Eur J Med Chem, 2024)
Active and inactive are the calls of the source. The rule behind the calls is not given here.

Assays:
Plasmodium falciparum [1] = assay: (§1) Resistance ratio of EC90 for antiplasmodial activity against drug-resistant recrudescent Plasmodium falciparum Dd2-B2 in 2x10^7 bulk culture selection measured on day 15 under initial selection drug pressure concentration of 3XEC50 to EC90 for antiplasmodial activity against Plasmodium flaciparum Dd2 measured after 72 hrs; assay type: functional
Plasmodium falciparum [2] = assay: Antiplasmodial activity against multidrug-resistant Plasmodium falciparum Dd2 harboring DHODH-C276F mutant infected in erythrocytes assessed as inhibition of parasite growth incubated for 72 hrs by [3H]hypoxanthine incorporation based microbeta counting analysis; assay type: functional, organism-based; conditions: Dd2, Erythrocyte
CYP2D6 [3] = molecular target: T1, CYP2D6 (Homo sapiens, UniProt P10635); assay: Inhibition of CYP2D6 (unknown origin) at 10 uM relative to control; assay type: ADME
T1 sequence (P10635 whole entry): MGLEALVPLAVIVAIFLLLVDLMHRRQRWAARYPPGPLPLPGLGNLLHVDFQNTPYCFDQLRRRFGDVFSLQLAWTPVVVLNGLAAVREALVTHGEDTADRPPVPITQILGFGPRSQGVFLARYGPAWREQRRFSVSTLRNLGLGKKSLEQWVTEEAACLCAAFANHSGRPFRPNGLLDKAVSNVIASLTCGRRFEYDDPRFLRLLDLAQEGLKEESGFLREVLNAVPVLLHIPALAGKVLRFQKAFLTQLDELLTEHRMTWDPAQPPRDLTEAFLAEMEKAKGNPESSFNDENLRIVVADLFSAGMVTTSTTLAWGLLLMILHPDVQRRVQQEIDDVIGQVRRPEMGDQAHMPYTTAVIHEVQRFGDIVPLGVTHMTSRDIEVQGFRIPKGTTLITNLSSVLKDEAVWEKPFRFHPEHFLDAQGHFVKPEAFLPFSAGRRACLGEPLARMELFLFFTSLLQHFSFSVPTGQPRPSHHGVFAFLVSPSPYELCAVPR

Plasmodium falciparum [4] = assay: Antiplasmodial activity against multidrug-resistant Plasmodium falciparum 7G8 infected in erythrocytes assessed as inhibition of parasite growth incubated for 72 hrs by [3H]hypoxanthine incorporation based microbeta counting analysis; assay type: functional, organism-based; conditions: 7G8, Erythrocyte
CYP3A4 [5] = molecular target: T2, CYP3A4 (Homo sapiens, UniProt P08684); assay: Inhibition of CYP3A4 (unknown origin) at 1 uM relative to control; assay type: ADME
T2 sequence (P08684 whole entry): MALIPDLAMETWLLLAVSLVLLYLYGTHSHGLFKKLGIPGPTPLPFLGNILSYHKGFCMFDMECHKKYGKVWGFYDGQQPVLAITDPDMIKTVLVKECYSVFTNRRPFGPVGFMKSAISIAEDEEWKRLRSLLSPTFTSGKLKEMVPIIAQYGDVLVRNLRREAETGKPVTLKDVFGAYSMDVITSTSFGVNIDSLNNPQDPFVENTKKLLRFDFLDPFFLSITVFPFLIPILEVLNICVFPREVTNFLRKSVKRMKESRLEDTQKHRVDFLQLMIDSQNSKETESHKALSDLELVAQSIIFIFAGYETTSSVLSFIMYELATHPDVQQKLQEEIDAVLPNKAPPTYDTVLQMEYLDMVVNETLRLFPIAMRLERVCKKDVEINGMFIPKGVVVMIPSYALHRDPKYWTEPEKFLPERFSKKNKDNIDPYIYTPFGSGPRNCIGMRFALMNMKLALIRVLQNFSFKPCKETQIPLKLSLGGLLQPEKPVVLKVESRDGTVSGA

CYP3A4 [6] = molecular target: T2, CYP3A4; assay: Inhibition of CYP3A4 (unknown origin) at 10 uM relative to control; assay type: ADME
Plasmodium falciparum [7] = assay: Antiplasmodial activity against multidrig-resistant Plasmodium falciparum Dd2 harboring eEF2Y-I86N mutant infected in erythrocytes assessed as inhibition of parasite growth incubated for 72 hrs by [3H]hypoxanthine incorporation based microbeta counting analysis; assay type: functional, organism-based; conditions: Dd2, Erythrocyte
[8] = Efflux ratio of permeability across basolateral to apical side over apical to basolateral side in human Caco-2 cells at pH 7.4; assay type: ADME, cell-based; conditions: Caco-2, pH 7.4
[9] = molecular target: Voltage-gated inwardly rectifying potassium channel KCNH2 (Homo sapiens, UniProt Q12809); assay: Inhibition of hERG expressed in CHO cells by patch clamp method; assay type: toxicity, cell-based
Sequence of Voltage-gated inwardly rectifying potassium channel KCNH2 (Q12809 whole entry): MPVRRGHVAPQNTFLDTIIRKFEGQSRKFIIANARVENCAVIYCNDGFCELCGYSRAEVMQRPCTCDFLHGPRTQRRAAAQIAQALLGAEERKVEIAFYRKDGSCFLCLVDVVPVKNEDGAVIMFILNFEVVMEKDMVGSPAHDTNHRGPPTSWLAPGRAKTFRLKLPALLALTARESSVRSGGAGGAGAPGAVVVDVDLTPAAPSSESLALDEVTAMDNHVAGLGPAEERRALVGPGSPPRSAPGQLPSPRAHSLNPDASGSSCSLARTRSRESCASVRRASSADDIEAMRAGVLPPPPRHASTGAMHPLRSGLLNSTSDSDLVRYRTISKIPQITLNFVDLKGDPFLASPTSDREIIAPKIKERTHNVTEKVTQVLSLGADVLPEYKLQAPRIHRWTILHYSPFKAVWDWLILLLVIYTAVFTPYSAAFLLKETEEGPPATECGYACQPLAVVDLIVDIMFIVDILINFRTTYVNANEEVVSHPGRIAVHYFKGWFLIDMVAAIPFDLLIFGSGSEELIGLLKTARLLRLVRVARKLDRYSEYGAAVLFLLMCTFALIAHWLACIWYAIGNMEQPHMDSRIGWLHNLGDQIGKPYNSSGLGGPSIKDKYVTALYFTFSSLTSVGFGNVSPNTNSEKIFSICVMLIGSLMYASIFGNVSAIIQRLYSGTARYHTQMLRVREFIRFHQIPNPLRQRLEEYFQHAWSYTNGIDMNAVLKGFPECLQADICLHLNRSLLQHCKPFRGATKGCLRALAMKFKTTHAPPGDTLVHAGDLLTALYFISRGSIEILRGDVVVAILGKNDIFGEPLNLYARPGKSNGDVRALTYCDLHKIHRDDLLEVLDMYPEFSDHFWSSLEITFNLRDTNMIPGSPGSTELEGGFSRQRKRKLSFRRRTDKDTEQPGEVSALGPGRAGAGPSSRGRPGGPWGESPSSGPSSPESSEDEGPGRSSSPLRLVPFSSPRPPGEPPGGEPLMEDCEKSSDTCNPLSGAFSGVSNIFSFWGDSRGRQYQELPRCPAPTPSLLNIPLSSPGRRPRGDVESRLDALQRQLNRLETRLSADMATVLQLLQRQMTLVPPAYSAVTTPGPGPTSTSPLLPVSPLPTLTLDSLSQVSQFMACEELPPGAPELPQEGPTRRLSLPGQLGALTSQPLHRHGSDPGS

Plasmodium falciparum [10] = assay: Antiplasmodial activity against multidrug-resistant Plasmodium falciparum NF54 infected in erythrocytes assessed as inhibition of parasite growth incubated for 72 hrs by [3H]hypoxanthine incorporation based microbeta counting analysis; assay type: functional, organism-based; conditions: NF54, Erythrocyte
[11] = Lipophilicity, elogD of the compound in 1-Octanol/PBS at pH 7.4 at 7.5 uM incubated for 2 hrs by miniaturized shake flask method; assay type: physicochemical
[12] = Cytotoxicity against human HepG2 cells assessed as inhibition of cell growth incubated for 48 hrs by CellTiter-Glo luminescence assay; assay type: toxicity, cell-based
Plasmodium falciparum [13] = assay: Antiplasmodial activity against multidrug-resistant Plasmodium falciparum Dd2 harboring cyt b-I22L mutant infected in erythrocytes assessed as inhibition of parasite growth incubated for 72 hrs by [3H]hypoxanthine incorporation based microbeta counting analysis; assay type: functional, organism-based; conditions: Dd2, Erythrocyte
[14] = Permeability of the compound across apical to basolateral side in human Caco-2 cells at pH 7.4; assay type: ADME, cell-based; conditions: Caco-2, pH 7.4, read-out: permeability
CYP1A2 [15] = molecular target: T3, CYP1A2 (Homo sapiens, UniProt P05177); assay: Inhibition of CYP1A2 (unknown origin) at 10 uM relative to control; assay type: ADME
T3 sequence (P05177 whole entry): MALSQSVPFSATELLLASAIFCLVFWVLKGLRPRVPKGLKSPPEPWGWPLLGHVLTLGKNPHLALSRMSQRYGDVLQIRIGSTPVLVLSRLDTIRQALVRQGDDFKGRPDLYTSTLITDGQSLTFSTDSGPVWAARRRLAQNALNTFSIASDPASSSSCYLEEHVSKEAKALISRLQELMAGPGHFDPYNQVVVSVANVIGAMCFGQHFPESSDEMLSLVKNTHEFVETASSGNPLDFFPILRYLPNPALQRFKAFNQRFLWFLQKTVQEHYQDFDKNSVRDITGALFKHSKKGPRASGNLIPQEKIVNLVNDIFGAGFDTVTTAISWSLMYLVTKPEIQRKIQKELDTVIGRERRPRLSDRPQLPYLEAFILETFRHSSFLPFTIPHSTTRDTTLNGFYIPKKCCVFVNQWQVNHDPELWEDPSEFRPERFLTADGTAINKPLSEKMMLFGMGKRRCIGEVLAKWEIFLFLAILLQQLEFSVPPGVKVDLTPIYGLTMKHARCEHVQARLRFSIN

CYP2C9 [16] = molecular target: T4, CYP2C9 (Homo sapiens, UniProt P11712); assay: Inhibition of CYP2C9 (unknown origin) at 1 uM relative to control; assay type: ADME
T4 sequence (P11712 whole entry): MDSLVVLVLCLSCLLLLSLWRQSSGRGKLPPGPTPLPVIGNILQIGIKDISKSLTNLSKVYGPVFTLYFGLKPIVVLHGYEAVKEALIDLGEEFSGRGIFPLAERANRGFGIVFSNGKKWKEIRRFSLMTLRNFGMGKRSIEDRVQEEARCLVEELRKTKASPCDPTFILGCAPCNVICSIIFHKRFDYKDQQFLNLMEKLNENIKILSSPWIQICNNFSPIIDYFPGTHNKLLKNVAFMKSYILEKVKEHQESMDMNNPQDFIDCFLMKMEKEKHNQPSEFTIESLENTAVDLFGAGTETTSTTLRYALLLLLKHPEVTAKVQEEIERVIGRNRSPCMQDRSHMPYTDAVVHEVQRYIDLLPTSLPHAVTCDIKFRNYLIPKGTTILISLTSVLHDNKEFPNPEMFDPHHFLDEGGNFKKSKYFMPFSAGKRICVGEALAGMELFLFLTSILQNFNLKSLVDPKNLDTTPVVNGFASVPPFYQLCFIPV

Plasmodium falciparum [17] = assay: as §1, with “EC50” for “EC90”; assay type: functional
Plasmodium falciparum [18] = assay: Antiplasmodial activity against drug-resistant recrudescent Plasmodium falciparum Dd2-B2 in 2x10^7 bulk culture selection assessed as inhibition of parasite growth incubated for 72 hrs by flow cytometry; assay type: functional, organism-based
CYP2C19 [19] = molecular target: T5, CYP2C19 (Homo sapiens, UniProt P33261); assay: Inhibition of CYP2C19 (unknown origin) at 10 uM relative to control; assay type: ADME
T5 sequence (P33261 whole entry): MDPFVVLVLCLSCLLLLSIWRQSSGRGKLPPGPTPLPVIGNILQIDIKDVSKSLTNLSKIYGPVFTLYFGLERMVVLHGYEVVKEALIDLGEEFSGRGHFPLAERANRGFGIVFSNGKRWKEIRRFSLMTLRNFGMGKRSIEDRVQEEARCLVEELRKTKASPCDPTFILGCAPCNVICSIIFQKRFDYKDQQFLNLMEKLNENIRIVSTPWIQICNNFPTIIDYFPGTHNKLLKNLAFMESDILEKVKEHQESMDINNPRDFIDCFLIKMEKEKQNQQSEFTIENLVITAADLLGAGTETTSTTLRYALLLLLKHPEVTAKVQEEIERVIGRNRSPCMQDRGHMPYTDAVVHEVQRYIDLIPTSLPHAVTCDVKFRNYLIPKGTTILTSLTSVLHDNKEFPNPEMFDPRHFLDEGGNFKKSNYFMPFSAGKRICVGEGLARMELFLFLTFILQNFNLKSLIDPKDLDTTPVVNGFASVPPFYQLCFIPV

Plasmodium falciparum [20] = assay: Antiplasmodial activity against Plasmodium falciparum Dd2 infected in erythrocytes assessed as inhibition of parasite growth incubated for 72 hrs by [3H]hypoxanthine incorporation based microbeta counting analysis; assay type: functional, organism-based; conditions: Dd2, Erythrocyte
CYP2C9 [21] = molecular target: T4, CYP2C9; assay: Inhibition of CYP2C9 (unknown origin) at 10 uM relative to control; assay type: ADME
Plasmodium falciparum [22] = assay: Antimalarial activity against asexual stage of Plasmodium falciparum 3D7 infected in erythrocytes assessed as lag phase of parasite growth at 10XEC50 incubated for 24 hrs followed by drug removal and incubation for 48 hrs with CFDA-SE labelled fresh erythrocytes by Hoechst 33342 staining based two-color flow cytometry; assay type: functional, organism-based; conditions: Erythrocyte
Plasmodium falciparum [23] = assay: Antiplasmodial activity against multidrug-resistant Plasmodium falciparum Cam3.1 infected in erythrocytes assessed as inhibition of parasite growth incubated for 72 hrs by [3H]hypoxanthine incorporation based microbeta counting analysis; assay type: functional, organism-based; conditions: Cam3.1, Erythrocyte
Plasmodium falciparum [24] = assay: Antiplasmodial activity against multidrug-resistant Plasmodium falciparum Dd2 harboring PI4K-S743F mutant infected in erythrocytes assessed as inhibition of parasite growth incubated for 72 hrs by [3H]hypoxanthine incorporation based microbeta counting analysis; assay type: functional, organism-based; conditions: Dd2, Erythrocyte
CYP2D6 [25] = molecular target: T1, CYP2D6; assay: Inhibition of CYP2D6 (unknown origin) at 1 uM relative to control; assay type: ADME
CYP1A2 [26] = molecular target: T3, CYP1A2; assay: Inhibition of CYP1A2 (unknown origin) at 1 uM relative to control; assay type: ADME
[27] = Permeability of the compound across basolateral to apical side in human Caco-2 cells at pH 7.4; assay type: ADME, cell-based; conditions: Caco-2, pH 7.4, read-out: permeability
Plasmodium falciparum [28] = assay: Antiplasmodial activity against multidrug-resistant Plasmodium falciparum TM90-C2B infected in erythrocytes assessed as inhibition of parasite growth incubated for 72 hrs by [3H]hypoxanthine incorporation based microbeta counting analysis; assay type: functional, organism-based; conditions: Erythrocyte
Plasmodium falciparum [29] = assay: Antiplasmodial activity against drug-resistant Plasmodium falciparum Dd2-B2 bulk cultures assessed as minimum inoculum of resistance measured under initial selection drug pressure concentration of 3XEC50 by MIR analysis; assay type: functional
Plasmodium falciparum [30] = assay: as §1, with “2x10^5 to 2x10^6” for “2x10^7”; assay type: functional
CYP2C19 [31] = molecular target: T5, CYP2C19; assay: Inhibition of CYP2C19 (unknown origin) at 1 uM relative to control; assay type: ADME
Plasmodium falciparum [32] = assay: Antiplasmodial activity against multidrug-resistant Plasmodium falciparum K1 infected in erythrocytes assessed as inhibition of parasite growth incubated for 72 hrs by [3H]hypoxanthine incorporation based microbeta counting analysis; assay type: functional, organism-based; conditions: K1, Erythrocyte
Plasmodium falciparum [33] = assay: Antiplasmodial activity against drug-resistant Plasmodium falciparum Dd2-B2 in 2x10^5 bulk culture selection assessed as concentration required to complete parasite killing measured on day 5 under initial selection drug pressure concentration of 3XEC50 by Minimum inoculum of resistance analysis; assay type: functional; conditions: time 5 day

Compound `Cc1nn(C(C)(C)C)c2nc(C3CC3)cc(C(=O)N3CCOc4ccncc43)c12` has a Ratio (Plasmodium falciparum [1]) of 5, an EC50 (Plasmodium falciparum [2]) of 7 nM and an inhibition at 10 µM (CYP2D6 [3]) of 86.4%. It also gave an EC50 (Plasmodium falciparum [4]) of 8 nM, an inhibition at 1 µM (CYP3A4 [5]) of 66.2% and an inhibition at 10 µM (CYP3A4 [6]) of 90.5%. For the same compound, the EC50 (Plasmodium falciparum [7]) was 7 nM, the efflux ratio [8] was 1.4 and the EC50 [9] was 16700 nM. The EC50 (Plasmodium falciparum [10]) was 3 nM, the logD at 2 h, 7.5 µM [11] was 4.1 and the CC50 at 48 h [12] was 4810 nM. The EC50 (Plasmodium falciparum [13]) was 6 nM, the Papp A→B [14] was 17.1 ×10⁻⁶ cm/s and the inhibition at 10 µM (CYP1A2 [15]) was 55.1%. The inhibition at 1 µM (CYP2C9 [16]) was 12.8%, the Ratio EC50 (Plasmodium falciparum [17]) was 5 and the EC50 (Plasmodium falciparum [18]; Dd2-B2, 72 h) was 37.5 nM. It also gave an EC90 (Plasmodium falciparum [18]; Dd2-B2, time 72 hrs) of 68.9 nM, an inhibition at 10 µM (CYP2C19 [19]) of 17.4% and an EC50 (Plasmodium falciparum [20]) of 4 nM. The inhibition at 10 µM (CYP2C9 [21]) was 57.5%, the Activity (Plasmodium falciparum [22]) was “Active” and the EC50 (Plasmodium falciparum [23]) was 6 nM. For the same compound, the EC50 (Plasmodium falciparum [24]) was 6 nM, the inhibition at 1 µM (CYP2D6 [25]) was 43.8% and the inhibition at 1 µM (CYP1A2 [26]) was 18%. For the same compound, the Papp B→A [27] was 23.7 ×10⁻⁶ cm/s, the EC50 (Plasmodium falciparum [28]) was 7 nM and the Activity (Plasmodium falciparum [29]) was 1.6 10^6No_unit. For the same compound, the Ratio (Plasmodium falciparum [30]) was 5, the inhibition at 1 µM (CYP2C19 [31]) was 3.6% and the EC50 (Plasmodium falciparum [32]) was 9 nM. For the same compound, the Activity (Plasmodium falciparum [33]) was 28 nM.
